The source of these data is patent publication US6344440B1, “Antisecretory factor peptides regulating pathological permeability changes” (Rural Patent Svenska AB, priority 1995, dated 2002).

Data set [1] deals with cholera toxin-induced fluid secretion in rat intestine. The settings on record: in vivo.
Data set [2] has as its system toxin A from Clostridium difficile-induced inflammation and fluid secretion in the intestinal mucosa. The data set is described as follows: Toxin A-induced intestinal inflammation and fluid secretion, rat intestinal loop model. The settings on record: for toxin A-induced fluid secretion: p<0.01. Format: in vivo. The procedure: The effect of rAF on inflammation in the intestinal mucosa was also tested in the rat intestinal loop model. […] Half of the rats in each group received 100 ng of rAF intravenously 30 sec prior to the challenge; the other half received PBS buffer as control. After killing the rat, the loops was dissected out, and the middle 2-3 cm part of the loops were frozen on dry ice. The frozen specimens were then sectioned in 8 μm thick sections by use of a Leica cryostat. […] Alkaline phosphatases are expressed by the intestinal epithelial cells and the staining allows an assessment and of the integrity of the intestinal epithelium.

The subject of data set [3] is CT-induced extravascular penetration of Evans blue in the small intestine. The settings on record: rat, in vivo, iv.
The test system of data set [4] is CT-induced extravascular penetration of Evans blue in the plexus choroideus. The following applies: rat, in vivo, iv.
A further data set in a line: Toxicity of rAF in rats. In kind it is in vivo, rat. The procedure:
Toxicity—In order to test the toxicity of rAF it was injected in a high dose, 50 μg per rat.

For data set [5], the system named is cholera toxin-induced Evans blue permeation of intestinal tissue. The settings on record: rat, in vivo.

For IVCHSKTR (Human) [P1], in data set [1], the “ED50 (amount causing halfmaximal inhibition)” value is recorded as 5 pmol, the active dose result is recorded as “less than 1 ng” and the “activity (inhibition of cholera secretion)” value is listed as “active”. In addition, the “effect on toxin A-induced intestinal inflammation and fluid secretion” value in data set [2] (0.5 μg replacing the rAF protein) is on record as “achieved the same effect”. Also, in data set [2] (0.5 μl of P1 prior to toxin challenge), the “state of intestinal mucosa (alkaline phosphatase staining, FIG. 9)” value was “a conserved and normal intestinal mucosa”. The “CT-induced extravascular penetration of Evans blue, small intestine” value in data set [3] is “inhibits the CT-induced extravascular penetration of Evans blue”. Further, in data set [4], the “CT-induced extravascular penetration of Evans blue, plexus choroideus” value was “inhibits the CT-induced extravascular penetration of Evans blue”.
As to “N2: recombinant peptide, amino acids 36-80 of SEQ ID NO:2, expressed from basepairs 168-301 (VCHSKTRSNPENNVGLITLANDCEVLTTLTPDTGRILSKLHTVQP; Human)”, in data set [1], the “ED50 (amount causing halfmaximal inhibition)” value is on record as 6 pmol.
For “N3: recombinant peptide, amino acids 36-51 of SEQ ID NO:2, expressed from basepairs 168-215 (VCHSKTRSNPENNVGL; Human)”, the “ED50 (amount causing halfmaximal inhibition)” value in data set [1] stood at 3 pmol.
“P3: peptide of amino acids 35-46 of SEQ ID NO:2, solid phase synthesis (IVCHSKTRSNPE; Human)”: in data set [1], the “ED50 (amount causing halfmaximal inhibition)” value is 7 pmol and the “activity (inhibition of cholera secretion)” value is listed as “active”.
For the molecule VCHSKT (Human) [P2], the “effect on the toxin response” value in data set [1] is reported as “no effect”.

B1: N1: recombinant peptide, amino acids 1-80 of SEQ ID NO:2, expressed from basepairs 63-301 (protein)
chain: MVLESTMVCVDNSEYMRNGDFLPTRLQAQQDAVNIVCHSKTRSNPENNVGLITLANDCEVLTTLTPDTGRILSKLHTVQP
modifications: Human
With B1, the “ED50 (amount causing halfmaximal inhibition)” value in data set [1] worked out at 4 pmol.

B2: rAF: recombinant human antisecretory factor, SEQ ID No. 2, thrombin-cleaved pure AF-1 protein expressed in E. coli (protein)
chain: MVLESTMVCVDNSEYMRNGDFLPTRLQAQQDAVNIVCHSKTRSNPENNVGLITLANDCEVLTTLTPDTGRILSKLHTVQPKGKITFCTGIRVAHLALKHRQGKNHKMRIIAFVGSPVEDNEKDLVKLAKRLKKEKVNVDIINFGEEEVNTEKLTAFVNTLNGKDGTGSHLVTVPPGPSLADALISSPILAGEGGAMLGLGASDFEFGVDPSADPELALALRVSMEEQRHAGGGARRAARASAAEAGIATTGTEDSDDALLKMTISQQEFGRTGLPDLSSMTEEEQIAYAMQMSLQGAEFGQAESADIDASSAMDTSEPAKEEDDYDVMQDPEFLQSVLENLPGVDPNNEAIRNAMGSLPPRPPRTARRTRRRKTRSETGGKG
modifications: Human
For B2, in data set [1], the “inhibition of intestinal secretion compared to control animals” value is on record as “significant inhibition” and the “reduction of the fluid secretion compared to controls” value is “significant reduction”. Also, the “damage of the intestinal mucosa (shedding, necrosis, bleeding)” value in data set [2] (100 ng i.v. 30 sec prior to 0.5 μg toxin A, 2.5 and 5 h) is on record as “no shedding, necrosis or bleeding”. The “toxin A-induced fluid secretion” value in data set [2] (100 ng i.v. 30 sec prior to 0.5 μg toxin A, after 2.5 h, control 199±4) is 137 ± 5 mg/cm. In data set [2] (100 ng i.v. 30 sec prior to 0.5 μg toxin A, after 6 h, control 421±3), the “toxin A-induced fluid secretion” value amounted to 203 ± 6 mg/cm. Also, in the data set “Toxicity of rAF in rats” (50 μg per rat, observation period of one week), the toxic reaction result is on record as “No obvious toxic reaction”. Besides, the toxic reactions result in the data set “Toxicity of rAF in rats” (rats given 100 fold higher doses than that causing half-maximal inhibition) was “no obvious toxic reactions”. For the same molecule, in data set [5], the “% increase of EB-konc” value is 0 NS %, the “CT-induced increase of EB extracted from the intestinal tissue” value is given as “prevent this increase” and the “EB/g int. tissue × 10^−07” value was 29.6 ± 1.5 EB/g int. tissue × 10^−07.
